Assay [1] deals with T1, TcdB10463 (Clostridioides difficile, UniProt P18177).
T1 construct: the TcdB10463, purified from culture supernate of C. difficile, used in the experiments; purchased tgcBIOMICS, Mainz, Germany; host or cells: Clostridium difficile VPI10463 culture supernatant
As to the kind of experiment: In vitro cleavage assay of TcdB10463 after pre-treatment with protease inhibitor EPNP. It counts as biochemical, Clostridium difficile. Here is the method: TcdB10463 was purified as described in Example 1 (D) by means of affinity chromatography with the use of the monoclonal antibody 2CV and then pre-treated either (i) with the protease inhibitor EPNP (10 mM 1,2-epoxy-3-(p-nitrophenoxy)-propane) or (ii)—as control—with buffer (50 mM HEPES, 1M NaCl, 1 mM EDTA, pH 8.0) for 60 minutes at room temperature.
Then an in vitro cleavage assay analogous to Example 1 (A) was carried out. The test batches comprised respectively a volume of 10 μl, and contained respectively 50-100 ng unmarked TcdB10463, 100 μM IP6 and 10 mM tris-HCl pH 8.5. Following the incubation (1 h at room temperature), these test batches were subjected to a SDS-PAGE (10%) and the toxins and toxin fragments were then made visible by means of zinc stain.

Assay [2] addresses T1, TcdB10463. It counts as biochemical, Clostridium difficile.
The target in another assay is TcdB (Clostridioides difficile, UniProt P18177). The conditions noted are these: for Start of cell rounding after: CHO cells, TcdB pre-treated with polyclonal antiserum (1:100) 1 h at room temperature; for Neutralising effect of the polyclonal antiserum in the CHO test: antiserum of rabbits immunised with the preparation, dilution 1:100. Here is the method: The CHO test was carried out as follows: In a 96 well microtiter plate, CHO cells (=Chinese hamster ovarial cells) were disseminated (5000 cells/well) and incubated for 16 hours under standard conditions (5% CO2, DMEM F12 supplemented with […] L-glutamins, 5% FCS). The toxins were then introduced to the cells after gradual dilution in growth medium. Dilution stages between 10° and 10^−8 were tested. The cells were incubated for 3 hours under standard conditions. Then the proportion of rounded cells was determined microscopically, by several representative sections of the well being photographed and the elongated and the rounded cells being counted. (See also Moos et al., Meth Enzymol. 2000, 325: 114-125. Reference is made here expressly to the content of this publication).
In order to check the neutralising effect of the polyclonal antiserums, firstly TcdB was pre-treated with polyclonal antiserum (dilution stage 1:100) and incubated for 1 h at room temperature. Then the neutralising effect of the antiserums was checked as described in Example 2 with the aid of the CHO test. The measurement for the neutalising effect of the serums was how long the cells were protected from the cytotoxic effect of the TcdB.

This note sets out measurements from patent publication US9066961B2, “Medicament for LCT poisoning” (JOHANNES GUTENBERG-UN[…], priority 2006, dated 2015).

T1 sequence (P18177 whole entry): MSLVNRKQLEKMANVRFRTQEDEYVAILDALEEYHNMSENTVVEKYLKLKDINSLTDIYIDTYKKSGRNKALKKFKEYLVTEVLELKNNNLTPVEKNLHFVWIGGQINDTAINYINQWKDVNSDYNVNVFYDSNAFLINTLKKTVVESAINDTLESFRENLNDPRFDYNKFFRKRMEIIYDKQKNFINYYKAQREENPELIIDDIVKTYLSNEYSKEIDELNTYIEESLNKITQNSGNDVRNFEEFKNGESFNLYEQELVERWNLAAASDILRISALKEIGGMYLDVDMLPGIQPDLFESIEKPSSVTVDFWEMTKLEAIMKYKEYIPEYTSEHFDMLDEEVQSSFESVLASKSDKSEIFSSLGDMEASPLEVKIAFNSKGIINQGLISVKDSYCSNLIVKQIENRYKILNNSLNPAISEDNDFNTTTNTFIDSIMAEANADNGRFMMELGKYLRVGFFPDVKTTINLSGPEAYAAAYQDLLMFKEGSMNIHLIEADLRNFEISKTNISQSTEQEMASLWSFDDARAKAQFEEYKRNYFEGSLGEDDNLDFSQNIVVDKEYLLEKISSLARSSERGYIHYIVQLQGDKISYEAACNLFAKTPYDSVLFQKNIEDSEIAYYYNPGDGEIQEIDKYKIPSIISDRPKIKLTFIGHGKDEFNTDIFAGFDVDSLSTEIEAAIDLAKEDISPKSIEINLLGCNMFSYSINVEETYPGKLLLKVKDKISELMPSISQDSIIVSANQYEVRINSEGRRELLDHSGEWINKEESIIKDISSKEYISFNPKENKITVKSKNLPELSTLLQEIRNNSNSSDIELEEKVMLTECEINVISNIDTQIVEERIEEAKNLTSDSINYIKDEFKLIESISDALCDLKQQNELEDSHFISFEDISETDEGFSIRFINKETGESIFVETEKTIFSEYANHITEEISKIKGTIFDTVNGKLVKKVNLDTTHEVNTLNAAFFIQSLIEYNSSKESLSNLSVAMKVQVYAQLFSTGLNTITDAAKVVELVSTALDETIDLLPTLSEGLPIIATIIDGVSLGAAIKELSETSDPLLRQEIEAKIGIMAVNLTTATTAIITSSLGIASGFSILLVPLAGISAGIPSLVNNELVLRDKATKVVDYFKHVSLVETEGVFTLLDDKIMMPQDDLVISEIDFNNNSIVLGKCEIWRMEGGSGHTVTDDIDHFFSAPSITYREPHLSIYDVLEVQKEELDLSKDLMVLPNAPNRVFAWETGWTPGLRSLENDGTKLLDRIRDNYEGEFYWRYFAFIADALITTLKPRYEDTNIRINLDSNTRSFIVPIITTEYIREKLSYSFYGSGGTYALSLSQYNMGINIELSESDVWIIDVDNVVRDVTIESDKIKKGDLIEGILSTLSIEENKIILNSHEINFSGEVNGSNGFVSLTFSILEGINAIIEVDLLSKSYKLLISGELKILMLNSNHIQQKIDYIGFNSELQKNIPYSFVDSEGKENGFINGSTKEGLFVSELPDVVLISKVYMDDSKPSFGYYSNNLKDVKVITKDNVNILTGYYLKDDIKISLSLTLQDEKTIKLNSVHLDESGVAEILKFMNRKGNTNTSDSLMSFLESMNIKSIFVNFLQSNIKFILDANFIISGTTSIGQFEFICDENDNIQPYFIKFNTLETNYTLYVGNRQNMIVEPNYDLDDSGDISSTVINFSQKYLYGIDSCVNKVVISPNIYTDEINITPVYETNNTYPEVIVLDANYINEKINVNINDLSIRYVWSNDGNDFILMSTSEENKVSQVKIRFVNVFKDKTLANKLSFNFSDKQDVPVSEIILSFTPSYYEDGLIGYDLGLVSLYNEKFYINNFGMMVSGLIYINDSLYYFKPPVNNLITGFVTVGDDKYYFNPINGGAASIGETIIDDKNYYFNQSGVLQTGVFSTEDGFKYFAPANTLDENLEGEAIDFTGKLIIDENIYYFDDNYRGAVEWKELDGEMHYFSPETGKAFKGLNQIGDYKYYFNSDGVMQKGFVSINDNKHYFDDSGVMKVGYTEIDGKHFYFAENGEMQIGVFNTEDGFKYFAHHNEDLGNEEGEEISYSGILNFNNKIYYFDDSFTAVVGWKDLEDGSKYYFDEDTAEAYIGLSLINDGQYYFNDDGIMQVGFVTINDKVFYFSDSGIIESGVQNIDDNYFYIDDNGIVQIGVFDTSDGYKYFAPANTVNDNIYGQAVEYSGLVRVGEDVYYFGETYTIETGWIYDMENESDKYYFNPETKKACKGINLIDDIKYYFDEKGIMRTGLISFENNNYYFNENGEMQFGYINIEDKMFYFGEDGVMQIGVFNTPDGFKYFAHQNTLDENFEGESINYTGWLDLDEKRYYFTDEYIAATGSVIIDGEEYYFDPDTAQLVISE
TcdB, sequence (P18177 whole entry): as above

For `O=[N+]([O-])c1ccc(OCC2CO2)cc1` (centres unmarked) [EPNP, 1,2-epoxy-3-(p-nitrophenoxy)-propane], the “63 kD band in SDS-PAGE” value at TcdB10463 [1] (TcdB10463 pre-treated with EPNP, after incubation with IP6 (FIG. 2, Line 2)) is reported as “only weakly formed”. At TcdB10463 [1] (pre-treatment with 10 mM EPNP 60 minutes, then 100 μM IP6 1 h at room temperature), the “Proteolytic activity (protease activity) of TcdB10463” value is given as “almost completely inhibited”.
As to `O=P(O)(O)O[C@H]1[C@H](OP(=O)(O)O)[C@@H](OP(=O)(O)O)[C@H](OP(=O)(O)O)[C@@H](OP(=O)(O)O)[C@H]1OP(=O)(O)O` [IP 1, 2, 3, 4, 5, 6, inositol hexaphosphate], on TcdB10463 [2], the “Cleavage activity (initiator activity) amongst the tested inositol phosphates” value is listed as “strongest cleavage activity”; the “Cleavage of the holotoxin into 63 kDa and 207 kDa fragments” value is listed as “complete cleavage”.

B1: Preparation D: TcdB fragment AS1508-1601 (part of the inosine-binding motif) (protein, UniProt P18177 1508-1601, looked up, fragment)
chain: YYSNNLKDVKVITKDNVNILTGYYLKDDIKISLSLTLQDEKTIKLNSVHLDESGVAEILKFMNRKGNTNTSDSLMSFLESMNIKSIFVNFLQSN
Turning to B1, in the assay with TcdB, the “Start of cell rounding after” value lay in the range of 9 to 12 h and the “Neutralising effect of the polyclonal antiserum in the CHO test” value is reported as “smaller neutralising effect”.

B2: Preparation C: TcdB fragment AS1601-1716 (DSG motif) (protein, UniProt P18177 1601-1716, looked up, fragment)
chain: NIKFILDANFIISGTTSIGQFEFICDENDNIQPYFIKFNTLETNYTLYVGNRQNMIVEPNYDLDDSGDISSTVINFSQKYLYGIDSCVNKVVISPNIYTDEINITPVYETNNTYPE
As for B2, in the assay with TcdB, the “Start of cell rounding after” value was 12 to 15 h and the “Neutralising effect of the polyclonal antiserum in the CHO test” value was “smaller neutralising effect”.
